For assay [1], the target named is T1, Glycogen synthase kinase-3 beta (Homo sapiens, UniProt P49841). Briefly: Inhibition of GSK-3beta (unknown origin).
Assay [2] has as its target T1, Glycogen synthase kinase-3 beta. In words: Inhibition of GSK-3beta (unknown origin) incubated for 1 hr by HTRF assay. On the technique in general: In TR-FRET formats the signal depends on donor and acceptor labels being close together.
Assay [3] has the same target. Briefly: Inhibition of human wildtype full length GSK-3beta.
The target is the same in assay [4]. In words: Inhibition of human GSK-3beta.
For another assay, the system named is PC-12. In words: Neuroprotective activity against CORT-induced damage in rat PC-12 cells measured after 24 hrs by MTT assay. The format is functional, cell-based. The conditions noted are these: PC-12, 24 h.
Assay [5] concerns the target T1, Glycogen synthase kinase-3 beta. Briefly: Inhibition of full length GST-tagged human recombinant GSK-3beta (1 to 420 residues) expressed in Escherichia coli.
The target is the same in assay [6]. Briefly: Binding affinity to full length GST-tagged human recombinant GSK-3beta (1 to 420 residues) expressed in Escherichia coli assessed as inhibition constant.

T1 sequence (P49841 whole entry): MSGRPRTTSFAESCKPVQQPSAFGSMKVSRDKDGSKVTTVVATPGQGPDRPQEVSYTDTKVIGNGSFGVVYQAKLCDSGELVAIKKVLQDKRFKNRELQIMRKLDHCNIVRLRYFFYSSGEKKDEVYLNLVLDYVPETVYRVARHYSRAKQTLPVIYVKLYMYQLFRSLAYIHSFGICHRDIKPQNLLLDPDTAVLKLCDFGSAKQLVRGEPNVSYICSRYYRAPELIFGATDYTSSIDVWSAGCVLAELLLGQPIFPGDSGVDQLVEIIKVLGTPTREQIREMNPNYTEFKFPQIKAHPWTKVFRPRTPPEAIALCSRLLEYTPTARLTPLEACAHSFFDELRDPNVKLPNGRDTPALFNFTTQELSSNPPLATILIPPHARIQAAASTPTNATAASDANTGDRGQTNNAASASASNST

What is called IC50 is the concentration that gives 50% inhibition. Compound `O=C(O)C1=CN2C3C(=C(NCCNc4ccccn4)C(F)=CC3C1=O)OCCC21CCC1` (centres undefined) registered a half-inhibitory concentration (IC50) in assay [1] of 36 nM.

Take `COCCN1CCC(CNC(=O)c2ncc3ccc(-c4cncc(OC(C)C)c4)cn23)CC1`: the IC50 in assay [2] was 9 nM.

For the compound `COc1ccccc1-c1c2c(nc3[nH]nc(C)c13)CC(C)(C)CC2=O`, the IC50 in assay [3] came out at 54 nM.

In assay [1], `CN1CCN(c2ccc(NCCNc3ccc([N+](=O)[O-])c(N)n3)nc2-c2ccc(Cl)cc2Cl)C(=O)C1` displayed a concentration for half-maximal inhibition (IC50) of 8 nM.

With `CC(/C=C1\SC(=S)N(CC(=O)O)C1=O)=C\c1ccccc1`, in assay [4], the IC50 is 21 nM.

What is called EC50 is the midpoint of the concentration-response curve. A low value points to a more potent agent. In the assay with PC-12, `N#C[C@@H](CC1=NN2C(N)=NC(NC3CCCCC3)=NC2N1)C(N)=O` (some centres undefined) returned an EC50 of 3 nM.

On to `Nc1ncc(-c2ccc(S(=O)(=O)N3C=COCC3)cc2)nc1C(=O)Nc1cccnc1`, for which the concentration for half-maximal inhibition (IC50) in assay [5] is 10 nM.

As usually defined, the Ki is the equilibrium dissociation constant of an inhibitor or competing ligand from its target. In the case of `COCCNC(=O)c1nc(-c2ccc(S(=O)(=O)N3C=CN(C)CC3)cc2)cnc1N`, the Ki in assay [6] is 90 nM.

`Nc1nc(NCCNc2ncc(-c3ncc[nH]3)c(-c3ccc(Cl)cc3Cl)n2)ccc1[N+](=O)[O-]` yielded a concentration for half-maximal inhibition (IC50) in assay [1] of 0.06 nM.

Values taken from ChEMBL document CHEMBL5325494, “Glycogen synthase kinase-3: A potential target for diabetes” (Bioorg Med Chem, 2023).
